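Tested at 5 concentrations; 48 h exposure; 96-well plates; endpoints linearly interpolated, else capped at highest concentration. The concentration for 50% growth inhibition is given as GI50.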 Active and inactive are the calls of the source. Cut-off read from the data, not from the text of the source: active = GI50 up to about 1.1 µM and inactive = higher.
Experiments:
Test in all cases: NCI anticancer screen, dose series, 48 h
PC-3 = system: PC-3
M14 = system: M14
OVCAR-5 = system: OVCAR-5
HOP-92 = system: HOP-92
SK-MEL-5 = system: SK-MEL-5
HL-60 = system: HL-60
NCI-H226 = system: NCI-H226
T47D = system: T47D
OVCAR-4 = system: OVCAR-4
UO-31 = system: UO-31
ACHN = system: ACHN
SK-MEL-2 = system: SK-MEL-2
NCI/ADR-RES = system: NCI/ADR-RES
SR = system: SR
COLO 205 = system: COLO 205
Malme-3M = system: Malme-3M
OVCAR-8 = system: OVCAR-8
EKVX = system: EKVX
CAKI-1 = system: CAKI-1

Compound | GI50 (PC-3) | GI50 (M14) | GI50 (OVCAR-5) | GI50 (HOP-92) | GI50 (SK-MEL-5) | GI50 (HL-60) | GI50 (NCI-H226) | GI50 (T47D) | GI50 (OVCAR-4) | GI50 (UO-31) | GI50 (ACHN) | GI50 (SK-MEL-2) | GI50 (NCI/ADR-RES) | GI50 (SR) | GI50 (COLO 205) | GI50 (Malme-3M) | GI50 (OVCAR-8) | GI50 (EKVX) | GI50 (CAKI-1)
O=C(CCc1cc(O)ccc1O)OCCc1ccccc1 | 4.91 µM (inactive) | 23.4 µM (inactive) | 27.4 µM (inactive) | 2.96 µM (inactive) | 22.2 µM (inactive) | 0.718 µM (active) | > 28.3 µM (inactive) | 16.4 µM (inactive) | 1.49 µM (inactive) | 4.6 µM (inactive) | 4.33 µM (inactive) | 18.7 µM (inactive) | 19.1 µM (inactive) | 5.6 µM (inactive) | 14.2 µM (inactive) | 12.6 µM (inactive) | 12.7 µM (inactive) | 16.6 µM (inactive) | 7.66 µM (inactive)
O=C(CNc1ccc(Cl)cc1)Nn1c(-c2ccccc2)nc2ccccc2c1=O | 12.6 µM (inactive) | 6.18 µM (inactive) | 14.7 µM (inactive) | 5.07 µM (inactive) | 2.84 µM (inactive) | 6.65 µM (inactive) | 5.52 µM (inactive) | 4.83 µM (inactive) | 7.5 µM (inactive) | 6.75 µM (inactive) | 8.89 µM (inactive) | 16 µM (inactive) | 6.79 µM (inactive) | 3.28 µM (inactive) | 6.82 µM (inactive) | 6.55 µM (inactive) | 3.72 µM (inactive) | 18.1 µM (inactive) | 11.4 µM (inactive)
O=C1c2cscc2C(=O)C1(O)O | 78 µM (inactive) | 22.2 µM (inactive) | > 100 µM (inactive) | 31.7 µM (inactive) | > 100 µM (inactive) | 26.1 µM (inactive) | > 100 µM (inactive) | 18.6 µM (inactive) | 25.6 µM (inactive) | 27.3 µM (inactive) | > 100 µM (inactive) | > 100 µM (inactive) | > 100 µM (inactive) | 19.1 µM (inactive) | 19.2 µM (inactive) | 23.4 µM (inactive) | 32.9 µM (inactive) | 36.1 µM (inactive) | 30.8 µM (inactive)
Cc1nc2c(N3CCCC3)nc(N3CCNCC3)nc2nc1NCc1ccccc1 | 5.05 µM (inactive) | 1.94 µM (inactive) | 13 µM (inactive) | 2.33 µM (inactive) | 1.65 µM (inactive) | 3.61 µM (inactive) | 13.1 µM (inactive) | 1.73 µM (inactive) | 7.73 µM (inactive) | 2.41 µM (inactive) | 5.12 µM (inactive) | 4.98 µM (inactive) | 13 µM (inactive) | 2.84 µM (inactive) | 1.24 µM (inactive) | 2.04 µM (inactive) | 3.37 µM (inactive) | 8.11 µM (inactive) | 3.01 µM (inactive)
O=C(/C=C/c1cc2ccccc2o1)N1CCN(c2ccccn2)CC1 | 50.4 µM (inactive) | 71.6 µM (inactive) | > 100 µM (inactive) | 60.5 µM (inactive) | > 100 µM (inactive) | 40.7 µM (inactive) | – | 44.3 µM (inactive) | 49.8 µM (inactive) | 40.9 µM (inactive) | – | > 100 µM (inactive) | 60.7 µM (inactive) | > 100 µM (inactive) | 85.7 µM (inactive) | 79.6 µM (inactive) | > 100 µM (inactive) | 95.5 µM (inactive) | > 100 µM (inactive)
N#CCCC1(CCC#N)CCCCCCCCC(CCC#N)(CCC#N)C(=O)C1=O | > 100 µM (inactive) | > 100 µM (inactive) | > 100 µM (inactive) | > 100 µM (inactive) | – | > 100 µM (inactive) | > 100 µM (inactive) | 36.6 µM (inactive) | > 100 µM (inactive) | – | > 100 µM (inactive) | > 100 µM (inactive) | > 100 µM (inactive) | > 100 µM (inactive) | > 100 µM (inactive) | > 100 µM (inactive) | > 100 µM (inactive) | > 100 µM (inactive) | > 100 µM (inactive)
Cc1ccc(C)n2c1nc1cc3ccccc3cc12 | 32.4 µM (inactive) | 42.6 µM (inactive) | 74.3 µM (inactive) | 8.75 µM (inactive) | 17.1 µM (inactive) | 53.8 µM (inactive) | 36 µM (inactive) | 11.1 µM (inactive) | – | 14.9 µM (inactive) | 29.6 µM (inactive) | – | 49.4 µM (inactive) | 43.4 µM (inactive) | 3.52 µM (inactive) | 50.1 µM (inactive) | 44.4 µM (inactive) | 64.6 µM (inactive) | –
O=[N+]([O-])/C(Cl)=C(/C(Cl)=C(Cl)Cl)N1CCCCC1 | 18.8 µM (inactive) | 11.2 µM (inactive) | 14.9 µM (inactive) | 16.1 µM (inactive) | 6.44 µM (inactive) | 2.64 µM (inactive) | 13.9 µM (inactive) | 11.8 µM (inactive) | 13.8 µM (inactive) | 8.15 µM (inactive) | 16.1 µM (inactive) | 25.2 µM (inactive) | 4.06 µM (inactive) | 3.16 µM (inactive) | 10 µM (inactive) | 2.7 µM (inactive) | 4.14 µM (inactive) | 20.3 µM (inactive) | 11.8 µM (inactive)
C#CC(O)/C=C/C(O)CCCC(O)CC#CC(O)C#CC(O)CCCC(O)/C=C/CCCCCC(=O)CCCCCCCCCCCCCC(O)C(O)C#CC(=O)O (stereo not given) | > 50 µM (inactive) | > 50 µM (inactive) | > 50 µM (inactive) | 13.5 µM (inactive) | > 50 µM (inactive) | 26.8 µM (inactive) | > 50 µM (inactive) | 10.9 µM (inactive) | 9.02 µM (inactive) | > 50 µM (inactive) | > 50 µM (inactive) | 15 µM (inactive) | > 50 µM (inactive) | 13.1 µM (inactive) | > 50 µM (inactive) | > 50 µM (inactive) | > 50 µM (inactive) | > 50 µM (inactive) | > 50 µM (inactive)
CC1=C2c3ccccc3N(S(=O)(=O)c3ccccc3)[C@H]2[C@H](C(=O)N2C3CC4CC[C@@]3(CS2(=O)=O)C4(C)C)CC1 (stereo not given in full) | 8.67 µM (inactive) | 64.4 µM (inactive) | > 100 µM (inactive) | 22.5 µM (inactive) | 22.8 µM (inactive) | 0.641 µM (active) | 37.4 µM (inactive) | 10.6 µM (inactive) | 64 µM (inactive) | 9.06 µM (inactive) | 34.3 µM (inactive) | – | 35.9 µM (inactive) | 12.5 µM (inactive) | 47.9 µM (inactive) | 28.9 µM (inactive) | 21.6 µM (inactive) | 56.6 µM (inactive) | 11.2 µM (inactive)
C=CCNC(=O)NC1=CSC2=NC(=O)C3(NN12)c1ccccc1-c1ccccc13 | > 10 µM (inactive) | > 10 µM (inactive) | > 10 µM (inactive) | > 10 µM (inactive) | > 10 µM (inactive) | > 10 µM (inactive) | > 10 µM (inactive) | > 10 µM (inactive) | > 10 µM (inactive) | 8.24 µM (inactive) | > 10 µM (inactive) | – | > 10 µM (inactive) | > 10 µM (inactive) | > 10 µM (inactive) | > 10 µM (inactive) | > 10 µM (inactive) | > 10 µM (inactive) | > 10 µM (inactive)
CCCCc1ccc(-n2sc3ncc(C)cc3c2=O)cc1 | 15 µM (inactive) | 13.4 µM (inactive) | 22.7 µM (inactive) | 26.8 µM (inactive) | 21.5 µM (inactive) | 8.57 µM (inactive) | > 100 µM (inactive) | 22.6 µM (inactive) | 33.7 µM (inactive) | 6.1 µM (inactive) | 30.9 µM (inactive) | 10.6 µM (inactive) | 27.6 µM (inactive) | 75.5 µM (inactive) | 20.5 µM (inactive) | 25.8 µM (inactive) | 21 µM (inactive) | 19.5 µM (inactive) | –
N#Cc1c(N2CCCC2)ncn(Cc2ccccc2)c1=O | > 100 µM (inactive) | > 100 µM (inactive) | > 100 µM (inactive) | > 100 µM (inactive) | > 100 µM (inactive) | > 100 µM (inactive) | > 100 µM (inactive) | > 100 µM (inactive) | > 100 µM (inactive) | > 100 µM (inactive) | > 100 µM (inactive) | > 100 µM (inactive) | > 100 µM (inactive) | > 100 µM (inactive) | > 100 µM (inactive) | > 100 µM (inactive) | > 100 µM (inactive) | > 100 µM (inactive) | –
N#CC(c1cc2c(cc1Br)OCO2)N1CCOCC1 (stereo not given) | 15.3 µM (inactive) | 20.6 µM (inactive) | > 100 µM (inactive) | > 100 µM (inactive) | 26.1 µM (inactive) | 3.33 µM (inactive) | 61.5 µM (inactive) | > 100 µM (inactive) | > 100 µM (inactive) | 71.4 µM (inactive) | 62.8 µM (inactive) | – | 27.1 µM (inactive) | 4.82 µM (inactive) | 64.9 µM (inactive) | 78.9 µM (inactive) | > 100 µM (inactive) | 44.3 µM (inactive) | > 100 µM (inactive)
CC1(C)O[C@@H]2[C@@H](COC(=O)c3ccccc3)C[C@@H](C#N)[C@@H]2O1 | > 100 µM (inactive) | > 100 µM (inactive) | > 100 µM (inactive) | > 100 µM (inactive) | > 100 µM (inactive) | > 100 µM (inactive) | > 100 µM (inactive) | > 100 µM (inactive) | > 100 µM (inactive) | > 100 µM (inactive) | > 100 µM (inactive) | – | > 100 µM (inactive) | > 100 µM (inactive) | > 100 µM (inactive) | > 100 µM (inactive) | > 100 µM (inactive) | – | –
